Test results reported in ChEMBL document CHEMBL1152086, “Synthesis and in vitro anti-HIV and antitumor activity of new 2-chloroethyl thiocarbamates” (1995).
Active and inactive are the calls of the source. No cut-off for these calls is given here.

Columns and labels:
[1] = system: SCLC; assay: In vitro anticancer activity against 2 NCI SCLC cell lines; inactive; format: functional, cell-based
[2] = system: NCI; assay: In vitro anticancer activity against 6 NCI ovarian cancer cell lines; inactive; format: functional, cell-based
[3] = system: RPMI-8226; assay: In vitro anticancer activity against RPMI-8226 leukemia cell line; format: functional; settings: Homo sapiens
[4] = system: SR; assay: In vitro anticancer activity against SR leukemia cell line; format: functional; settings: Homo sapiens
[5] = system: HL-60; assay: In vitro anticancer activity against HL-60(TB) leukemia cell line; format: functional; settings: Homo sapiens
[6] = system: NCI; assay: In vitro anticancer activity against 8 NCI CNS cancer cell lines; inactive; format: functional, cell-based
[7] = system: NCI; assay: In vitro anticancer activity against 9 NCI renal cancer cell lines; inactive; format: functional, cell-based
[8] = system: CCRF-CEM; assay: In vitro anticancer activity against CCRF-CEM leukemia cell line.(Maximum Concentration); format: functional; settings: Homo sapiens
[9] = system: MOLT-4; assay: In vitro anticancer activity against MOLT-4 leukemia cell line; format: functional; settings: Homo sapiens
[10] = system: K562; assay: In vitro anticancer activity against K-562 leukemia cell line; format: functional; settings: Homo sapiens
[11] = In vitro anticancer activity against 9 NCI melanoma cell lines; inactive; format: functional
[12] = system: NSCLC; assay: In vitro anticancer activity against 11 NCI NSCLC cell lines; inactive; format: functional, cell-based
[13] = system: Cancer cell lines; assay: In vitro anticancer activity against 9 NCI colon cancer cell lines; inactive; format: functional, cell-based
[14] = system: CCRF-CEM; assay: In vitro anticancer activity against CCRF-CEM leukemia cell line; format: functional; settings: Homo sapiens

Row | Structure (SMILES) | Activity [1] | Activity [2] | GI50 [3] [µM] | GI50 [4] [µM] | GI50 [5] [µM] | Activity [6] | Activity [7] | GI50 [8] [µM] | GI50 [9] [µM] | GI50 [10] [µM] | Activity [11] | Activity [12] | Activity [13] | GI50 [14] [µM]
1 | O=C(NCCCl)SCCO | inactive | inactive | > 100 | > 100 | > 100 | inactive | inactive | > 100 | > 100 | > 100 | inactive | inactive | inactive | 
2 | O=C(NCCCl)Sc1ccccc1 | inactive | inactive |  |  |  | inactive | inactive |  |  |  | inactive | inactive | inactive | 
3 | CCOC(=O)CSC(=O)NCCCl | inactive | inactive | > 100 | > 100 | 22.3 | inactive | inactive |  | > 100 | 29 | inactive | inactive | inactive | 7.22
